“And” between values parts separate entries of the source, which are not always exact repeats. Identical values can stand only once. “Also recorded” adds a separate entry of the source.

One data set can be described thus: Dog pharmacokinetics. The data set is classed as in vivo. Conditions: 10 mg/kg.
In the next data set the test system is PDE isoforms. The experiment in a line: Phosphodiesterase (PDE) profile (Eurofins). To be noted: 9 isoforms PDE. In kind it is biochemical.
The test system of another data set is mammalian cell. In words: Chromosomal aberrations, micronucleus test (MNT). In kind it is cell-based.
The subject of the next data set is human granulosa cells. In words: Estradiol production by human granulosa cells from individual patients by diagnosis (NOR, ARA, PCOS). In kind it is cell-based. The protocol:
Human granulosa cells were prepared from the spent follicular fluid of women undergoing IVF treatment at Boston IVF Center (Waltham, MA, United States) and at Family Fertility Center (Baylor College of Medicine, Houston, TX, United States) following methods previously established ([Breckwoldt et al., 1996]; [Amsterdam et al., 2003]). Institutional review board approval and informed consent from the patients were obtained before collecting the follicular fluid samples. In brief, red blood cells (RBCs) in the follicular aspirate were lyzed using RBC lysis buffer (Quality Biological Inc., Gaithersburg, MD, United States), and washed extensively with PBS and DMEM/F12 containing 5% FBS, fungizone, and the antibiotics penicillin (100 IU/ml) and streptomycin (100 μg/ml). Subsequently, cells from the aspirate were plated in T75 flasks, cultured for 7 days with fresh media being replaced every other day. At the end of the culture period, cells were released from the flask by trypsin and transferred to 96-well plates (5,000 cells/well, Greiner Bio-One). Following 48 h of culture, media in culture wells was replaced with serum free media containing 0.1% BSA and 10^−7 M androstenedione. Following 24 h of serum starvation, cells were stimulated with fresh media (0.1% BSA, 10^−7 M androstenedione) with FSH or compound for 48 h. Supernatant was collected and stored at −80C for determination of estradiol by ELISA.
Clinical definitions of patient sub-populations for patients at Texas Fertility followed guidelines outlined by the Practice Committee of the American Society for Reproductive Medicine ([Practice Committee of the American Society for Reproductive Medicine, 2015]). […] Advanced reproductive age (ARA) was defined as woman of 35 years old or greater in age, based on the definition of advanced maternal age by Society for Maternal-Fetal Medicine. Polycystic Ovarian Syndrome (PCOS) is a patient with two out of the three Rotterdam criteria ([Rotterdam ESHRE/ASRM-Sponsored PCOS Consensus Workshop Group, 2004]) which includes hyperandrogenism (hirsutism or biochemical), oligomenorrhea or amenorrhea, and/or polycystic ovaries on ultrasound.

The next data set deals with beagle dogs. In words: 14-day toxicity and toxicokinetics in Beagle dog. The data set is classed as in vivo. As for the experimental part: Male and female beagle dogs were received from Beijing Marshall Biotechnology Co., Ltd (Beijing, China) and group housed at Covance (Shanghai, China), except for 5 h each day in stainless steel cages for study-related procedures. […] Blood samples (approximately 1.0 ml) were collected for thyroid hormone analysis on Days 0, prior to dosing, 24 h post dose (prior to second dose on Day 2) and once prior to dosing on Day 14. Blood was collected into serum separator tubes (without anticoagulant), allowed to clot at room temperature, and centrifuged for approximately 10 min in a refrigerated centrifuge at approximately at 3,500 g within 2 h of collection. Serum was harvested and placed in a freezer for subsequent thyroid hormone measurement.

A further data set concerns Sprague Dawley rats. As for the experimental part: Toxicological evaluations were performed in both rat and dog as the second species according to the guidance from FDA. […] The animals were administered vehicle or 30, 100, 300 and 1,000 mg/kg by oral gavage for 14 days. […] Separate groups of animals (n = 6/sex/dose) were used for toxicokinetic (TK) analysis. On day 1 and day 14 of drug administration, serial blood samples were collected from 5 min to 24 h from the TK group animals for analytical measurement of the compound. Blood samples were placed on ice immediately after collection and were centrifuged at approximately 8,000 rpm for 6 min at 2–8°C and the resulting plasma were separated and stored in pre-labeled plastic tubes or vials. The amount of compound in the plasma samples were measure using an HPLC method. […] Evaluated parameters included; mortality, clinical signs, body weight, food consumption, urinalysis, hematology, clinical chemistry, gross post mortem examinations, organ weights and histopathological evaluations of selected tissues. At the end of 14-days of treatment, animals were sacrificed and blood collected for serum chemistry, coagulation and hematological analysis, organ weighed and histological analysis performed in select tissue from control and high dose group.

A further data set concerns 55 targets. The experiment in a line: Single concentration Cerep profile (Eurofins). The data set is classed as binding. To be noted: 10 uM.
The next data set addresses hERG (Homo sapiens, UniProt Q12809). In words: hERG channel inhibition (Cyprotex). The data set is classed as biochemical. Background: The hERG channel carries a current that helps repolarise heart muscle cells.
A further data set deals with 211 kinases. In words: Kinase profile (Eurofins). In kind it is biochemical.
For another data set, the system named is NK2 receptor. Conditions: dose response.
Another data set can be described thus: Solubility in PBS. In kind it is physicochemical. Conditions: PBS (pH 7.4).
A further data set deals with CYP3A4 (Homo sapiens, UniProt P08684). The experiment in a line: Cytochrome P450 inhibition. In kind it is in vitro ADME. Conditions: b51 words it as 52% of vehicle.
Sequence of CYP3A4 (P08684 whole entry): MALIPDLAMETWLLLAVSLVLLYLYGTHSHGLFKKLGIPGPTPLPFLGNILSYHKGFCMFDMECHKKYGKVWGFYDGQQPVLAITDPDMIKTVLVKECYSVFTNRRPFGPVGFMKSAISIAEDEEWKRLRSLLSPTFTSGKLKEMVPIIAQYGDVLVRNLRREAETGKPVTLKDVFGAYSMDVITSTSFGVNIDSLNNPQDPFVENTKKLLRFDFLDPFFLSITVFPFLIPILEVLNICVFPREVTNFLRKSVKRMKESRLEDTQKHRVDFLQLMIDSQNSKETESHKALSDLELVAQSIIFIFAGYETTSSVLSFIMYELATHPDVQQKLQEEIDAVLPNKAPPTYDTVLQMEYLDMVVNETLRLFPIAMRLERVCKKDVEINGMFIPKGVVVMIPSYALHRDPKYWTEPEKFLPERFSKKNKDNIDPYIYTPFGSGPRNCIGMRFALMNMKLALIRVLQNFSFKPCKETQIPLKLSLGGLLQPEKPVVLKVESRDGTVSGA

Sequence of hERG (Q12809 whole entry): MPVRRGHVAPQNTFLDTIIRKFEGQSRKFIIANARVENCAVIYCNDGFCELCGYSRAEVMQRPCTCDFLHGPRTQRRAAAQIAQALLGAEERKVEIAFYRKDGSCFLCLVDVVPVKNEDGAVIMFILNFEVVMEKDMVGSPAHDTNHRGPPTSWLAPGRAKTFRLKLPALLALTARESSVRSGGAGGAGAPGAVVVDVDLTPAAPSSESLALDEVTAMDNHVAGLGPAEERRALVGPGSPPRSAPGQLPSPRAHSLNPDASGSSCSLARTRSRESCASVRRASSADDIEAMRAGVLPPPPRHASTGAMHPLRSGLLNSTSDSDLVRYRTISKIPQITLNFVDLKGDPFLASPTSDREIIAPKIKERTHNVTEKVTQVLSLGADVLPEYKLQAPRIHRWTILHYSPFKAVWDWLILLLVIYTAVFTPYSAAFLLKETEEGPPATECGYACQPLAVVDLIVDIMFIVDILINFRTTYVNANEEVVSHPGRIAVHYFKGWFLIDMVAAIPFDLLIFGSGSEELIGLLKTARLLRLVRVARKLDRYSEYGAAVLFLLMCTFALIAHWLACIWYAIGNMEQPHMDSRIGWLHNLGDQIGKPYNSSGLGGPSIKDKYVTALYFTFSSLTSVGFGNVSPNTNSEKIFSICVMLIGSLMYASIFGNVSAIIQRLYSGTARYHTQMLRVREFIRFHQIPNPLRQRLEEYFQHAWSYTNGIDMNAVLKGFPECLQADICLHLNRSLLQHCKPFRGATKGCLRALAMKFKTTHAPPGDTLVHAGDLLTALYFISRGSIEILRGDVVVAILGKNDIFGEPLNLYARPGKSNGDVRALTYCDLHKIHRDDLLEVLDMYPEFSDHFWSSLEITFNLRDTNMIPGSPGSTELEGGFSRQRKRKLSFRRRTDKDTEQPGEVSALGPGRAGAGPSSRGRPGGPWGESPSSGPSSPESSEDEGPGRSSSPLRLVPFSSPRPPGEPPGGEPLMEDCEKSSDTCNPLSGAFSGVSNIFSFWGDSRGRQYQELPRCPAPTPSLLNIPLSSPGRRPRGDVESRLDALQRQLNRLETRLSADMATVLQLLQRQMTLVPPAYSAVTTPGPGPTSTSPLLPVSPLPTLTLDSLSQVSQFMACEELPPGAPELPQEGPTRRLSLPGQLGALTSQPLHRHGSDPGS

As to `COc1cc2c(cc1-c1cnn(CCO)c1)-c1c(c(C(=O)N(C)C(C)(C)C)nn1-c1cc(Cl)cc(Cl)c1)CO2` [TOP5300], in “Dog pharmacokinetics”, the “Dog PK AUC” value is listed as 8,719 ng*h/ml; the “Dog PK T1/2” value is 9 h and 9.4 h. The “Dog PK F%” value in the data set “Dog pharmacokinetics” (oral bioavailability) is 32%. Further, the “PDE profile @ 10 uM” value in the data set on PDE isoforms was “N o si g ni fi cant i nhi bi ti on any”. Besides, the “Micronucleus Test (MNT) result” value in the data set with mammalian cell was “N e g a tiv e; also recorded: inactive”. The “fold higher concentration than rec-hFSH required to stimulate maximum estradiol production” value with human granulosa cells is “approximately 20 fold”. In addition, the “Estradiol (pg/ml), ARA (n = 6)” value with human granulosa cells (FSH (20 nM) or TOP5300 (400 nM), advanced reproductive age, mean ± SD) is recorded as 10,648 ± 7,338 pg/ml. Also, the “Estradiol (pg/ml), NOR (n = 2)” value in the data set with human granulosa cells (FSH (20 nM) or TOP5300 (400 nM), normal ovarian reserve, mean) is 4,829 pg/ml. Besides, the “Estradiol (pg/ml), PCOS (n = 4)” value with human granulosa cells (FSH (20 nM) or TOP5300 (400 nM), polycystic ovarian disease, mean ± SD) is on record as 1,276 + 1,563 pg/ml. For the same compound, the “mortality or morbidity, dog” value with beagle dogs (14 days, up to 1,000 mg/kg) was “no mortality or morbidity occurred”. For the same compound, the “NOAEL, dog” value in the data set on beagle dogs (dog, in vivo, po) is on record as 1,000 mg/kg/day. The “margin of safety between first significant efficacy (5 mg/kg) and NOAEL (300 mg/kg)” value in the data set on Sprague Dawley rats (rat) came to 60 fold. In addition, in the data set on Sprague Dawley rats (rat, in vivo), the “accumulation after 14-days repeated dosing” value was “not observed”. For the same compound, in the data set on Sprague Dawley rats (rat, in vivo, po), the “NOAEL, female rat” value turned out to be 300 mg/kg; the “NOAEL, male rat” value was 1,000 mg/kg; the “Tmax, Day1” value is 2 to 8 h; the “Tmax, Day14” value was in the range of 2 to 8 h. Besides, the “mortality, rat” value with Sprague Dawley rats (up to 1,000 mg/kg, 14 days) was “all animals survived the duration of the study”. In the data set with 55 targets, the “number of targets < 60% inhibition” value is 52 targets and the “number of targets > 60% inhibition” value is 3 targets. Also, the hERG assay result on hERG is “inactive”. Moreover, on hERG (10 uM), the “hERG channel inhibition @ 10 uM” value worked out at 16 % inhibition. The “Kinase profile @ 10 uM” value in the data set on 211 kinases is recorded as “N o si g ni fi cant i nhi bi ti on any; also recorded: failed to inhibit activity”. The “selectivity / safety margin compared to FSHR, NK2(h)” value in the data set on NK2 receptor is listed as “over 400 fold”.

Take `COc1cc(C(N)=O)cc(-c2cc3c(cc2OC)OCc2c(C(=O)N(C)C(C)(C)C)nn(-c4cc(Cl)cc(Cl)c4)c2-3)n1` [TOP5668]: the “fold more soluble than TOP5300” value in the data set “Solubility in PBS” came to 14 fold. The “CYP inh @ 10 µM, CYP3A4 (midazolam)” value on CYP3A4 is given as “CYP3A4 (midazolam) = 50.6%”.

These data come from PMC7845544 (Frontiers in Pharmacology, 2021).
